From US20130244953A1, “DUAL SECURED THERAPEUTIC PEPTIDE DELIVERY SYSTEM” (priority 2011, published 2013)

System: rat red blood cells
Assay: Hemolytic assay
Assay type: cell-based
Details: 1 μM melittin, 37° C., 1 hour, pH 7.4
Experimental: Hemolytic assay: Rat blood was used to compare hemolytic effects of free melittin, SSNS, and DSNS using DI water as positive control and PBS as negative control. Briefly, rat red blood cells were washed using 210 mM sodium chloride and dispersed in phosphate buffer saline (pH 7.4), To the SSNS, DSNS and free melittin corresponding to melittin concentration of 0.1 to 10 μM, the same amount of red blood cells was added and incubated at 37° C. for 1 hour. Following, each sample was centrifuged at 300 rcf for 2 min. and the optical density of supernatant was measured (λ=405 nm.) for the quantification of lysed cell amount. The results are shown graphically in FIG. 5 and in the corresponding photographs of FIG. 6.

In the case of `CC[C@H](C)[C@H](NC(=O)CN)C(=O)NCC(=O)N[C@@H](C)C(=O)N[C@H](C(=O)N[C@@H](CC(C)C)C(=O)N[C@@H](CCCCN)C(=O)N[C@H](C(=O)N[C@@H](CC(C)C)C(=O)N[C@H](C(=O)N[C@H](C(=O)NCC(=O)N[C@@H](CC(C)C)C(=O)N1CCC[C@H]1C(=O)N[C@@H](C)C(=O)N[C@@H](CC(C)C)C(=O)N[C@H](C(=O)N[C@@H](CO)C(=O)N[C@@H](Cc1c[nH]c2ccccc12)C(=O)N[C@H](C(=O)N[C@@H](CCCCN)C(=O)N[C@@H](CCCNC(=N)N)C(=O)N[C@@H](CCCCN)C(=O)N[C@@H](CCCNC(=N)N)C(=O)N[C@@H](CCC(N)=O)C(=O)N[C@@H](CCC(N)=O)C(N)=O)[C@@H](C)CC)[C@@H](C)CC)[C@@H](C)O)[C@@H](C)O)C(C)C)C(C)C` [free melittin, melittin], the “red blood cell lysis” value is reported as “completely lysed the cells”.
